The test system of the test is Plasmodium falciparum. As to the kind of experiment: GSK_TCMDC: Inhibition of Plasmodium falciparum 3D7 in whole erythrocytes, using parasite LDH activity as an index of growth. The format is functional, organism-based. The conditions noted are these: Plasmodium falciparum, 3D7.

Structures are written as SMILES.

Compound `COc1ccc(C(=O)Nc2cc(Br)c3c(c2)CNCC3)cc1C(F)(F)F` registered an XC50 of 1070 nM.
Under `COc1ccc(OC)c(-c2ccc(=O)n(CC(=O)Nc3cccc4ccccc34)n2)c1` stands 901 nM; under `Cc1cc(Oc2cc(NC(=O)c3sc4ncn(Cc5ccccc5F)c(=O)c4c3C)cc([N+](=O)[O-])c2)ccc1Cl`, 1150 nM.
Consider `FC(F)(F)c1cccc(Nc2nc(-c3ccccc3)nc3ncccc23)c1`, for which the XC50 amounted to 802 nM.
The same measure for `O=C(Nc1cccc(C(F)(F)F)c1)N1CCOC(CCN2CCC3(CCc4ccccc43)CC2)(c2ccc(Cl)c(Cl)c2)C1` (stereo unspecified): 736 nM; for `COc1ccc(-c2nc(NC(=O)Cc3cccc(OC)c3)sc2C)cc1`: 237 nM.
The same measure for `OCC1CCN(Cc2ccc(-c3ccc(-c4nc5cc(F)ccc5[nH]4)s3)cc2)CC1`: 850 nM; for `CC(C)(C)C(C)(C)Cc1ccc(O)c(CN2CCN(c3ccccc3)CC2)c1`: 601 nM; for `N#Cc1ccc2c(c1)CCN(CCCn1c(-c3ccc4ccccc4c3)nc3ccncc31)CC2`: 198 nM.
The same measure for `CCOc1ccc(S(=O)(=O)N(C)c2ccc(OCC(=O)Nc3nccs3)cc2)cc1`: 961 nM.
As for `O=C(c1csc(-c2cccnc2)n1)N1CCc2cc3nccc(N4CCN5CCC[C@H]5C4)c3cc21`, the XC50 was 695 nM.
Under `Nc1c2c(nc3ccc(NC(=O)c4ccccc4)cc13)CCCC2` stands 611 nM.
As to `O=C(Nc1cc(Cl)cc(Cl)c1)Nc1ccccc1C(=O)NC1CCCCC1`, the XC50 amounted to 749 nM.
The same measure for `COC(=O)c1ccc2nc(-c3ccc(/C=C/C(=O)NC4CCN(Cc5ccccc5)CC4)cc3)[nH]c2c1`: 711 nM; for `CCCCCCc1c(C)nc2cc(OC)ccc2c1O`: 119 nM; for `CCc1cn(C)c2c(N3CCCC3=O)cc(C(=O)N[C@@H](Cc3ccccc3)[C@H](O)CNC(C)(C)c3cccc(C(F)(F)F)c3)cc12`: 106 nM.
Under `COc1cc(OC)c(NC(=O)Nc2ccnc3ccccc23)cc1Cl` stands 751 nM; under `O=[N+]([O-])c1cccc(CNCC2CCN(Cc3ccc4ccccc4c3)CC2)c1`, 876 nM; under `CC(Sc1nnc(-c2cccs2)[nH]1)C(=O)c1c[nH]c2ccccc12` (stereo unspecified), 1800 nM.
Under `CN(C)c1cccc2c1nc(-c1ccco1)n2CC1CCCN1` (stereo unspecified) stands 970 nM.
With `CC(C)(C)c1ccc(-c2cc3c(ccc4nc(N)nc(N)c43)[nH]2)cc1`, the XC50 was determined as 113 nM.
Take `O=C(Nc1ccc(-c2cccc(-c3nc4ccccc4[nH]3)c2)cc1)Nc1ccc(F)c(F)c1F`: the XC50 was determined as 182 nM.
Compound `Cc1ccccc1C1CCN(C2CCC(NC(=O)/C=C/c3ccc(F)c(F)c3)CC2)CC1` (stereo unspecified) had an XC50 of 945 nM.
The same measure for `CCOC(=O)c1ccc(NC(=O)N[C@@H](Cc2ccccc2)C(=O)NC2CCN(Cc3ccc(OCCCN(C)C)cc3)C2)cc1` (stereo partly specified): 702 nM; for `c1ccc(CCNCc2cccc(-c3ccccc3CNCc3ccc4c(c3)OCO4)c2)nc1`: 968 nM; for `CN1CCN(CCCN(Cc2cccc(-c3ccc(CNCc4ccc5c(c4)OCO5)cc3)c2)C(=O)Nc2ccccc2)CC1`: 681 nM.
The same measure for `COc1ccc2nccc([C@@H](O)CN3CCC(NCc4nc5ccccc5s4)CC3)c2c1`: 927 nM.
The same measure for `COc1ccc(-c2nc3cc4ccccc4nc3[nH]2)c(OCC(O)CNC(C)C)c1` (stereo unspecified): 694 nM; for `COc1cc(CNCCCNc2nc3ncccc3[nH]2)c2[nH]cc(Br)c2c1`: 1160 nM; for `COc1cc2ncnc(Nc3ccc(OCc4ccccc4)c(I)c3)c2cc1OC`: 712 nM.
The compound `COc1ccc(CCNC(=O)c2cc(C)ccc2O)cc1-c1ccc(C(C)(C)C)cc1` had an XC50 of 482 nM.
The same measure for `O=S(=O)(NCCN1CCCC1)c1ccc(-c2cccc(CNCc3ccc(F)cc3)c2)cc1F`: 787 nM.
Under `O=C1OC(c2ccccc2)(c2ccccc2)CN1CC1CCN(Cc2ccc(O)c(Cl)c2)CC1` stands 818 nM.
The same measure for `Cc1ccc2nc(C)cc(N/N=C/c3ccc([N+](=O)[O-])o3)c2c1`: 751 nM; for `Cc1cc(F)ccc1N(c1nc(-c2cc(Cl)ccc2Cl)cs1)C1CCNC1` (stereo unspecified): 1010 nM; for `CS(=O)(=O)N(CC(O)Cn1c2ccc(Cl)cc2c2cc(Cl)ccc21)c1ccccc1` (stereo unspecified): 897 nM.
`O=[N+]([O-])c1ccc(-c2nc3cc(C4=NC5CCCCC5N4)ccc3[nH]2)cc1` (stereo unspecified) returned an XC50 of 691 nM.
On to `COc1cccc2c(NCCNc3ccnc4c(OC)cccc34)ccnc12`, for which the XC50 turned out to be 267 nM.
The same measure for `CC1Cc2ccccc2N1CC(=O)Nc1cc(C(F)(F)F)ccc1-n1cncn1` (stereo unspecified): 321 nM.
The same measure for `COCCNC(=O)c1ccc(OC2CCN(Cc3ccc(F)c(F)c3)CC2)c(Cl)c1`: 1490 nM; for `CC(=O)N(Cc1cccc(-c2cccc(CNCc3ccc4c(c3)OCO4)c2)c1)C1CCN(Cc2ccccc2)CC1`: 839 nM.
For `COc1ccc2nccc(N3CCC(NCCNS(=O)(=O)c4ccc5c(c4)NC(=O)CS5)C3)c2n1` (stereo unspecified), the XC50 stood at 901 nM.
Under `CC(C)(C)c1nn(-c2ccccc2)c2[nH]c(=O)c(CNCCc3ccccc3)cc12` stands 866 nM; under `Cc1ccc(/C=C/C(=O)NCCCCCN2CCCN(C(=O)Nc3ccc(Cl)c(Cl)c3)CC2)cc1`, 942 nM.
Under `CCOC(=O)c1ccc(OCCCCCCOc2ccc(Br)cc2)cc1` stands 777 nM.
Under `N=C(N)c1ccc(NC(=O)c2cc(Sc3ccc(O)c(C(=O)Nc4ccc(C(=N)N)cc4)c3)ccc2O)cc1` stands 122 nM; under `CS(=O)(=O)NCCCNCc1cccc(-c2csc(-c3nc4ccccc4[nH]3)c2)c1`, 1010 nM.
Take `COc1ccc(NC(=O)Nc2cccc(-c3cccc(-c4nc5ccccc5[nH]4)c3)c2)cc1`: the XC50 was found to be 309 nM.
Under `Cc1cc(-c2cccc(CNC3CCN(C)CC3)c2)ccc1S(=O)(=O)NCc1ccccc1` stands 819 nM.
Take `COCCNc1nc(N2CCC(CNC(=O)c3ccc(-c4ccc(C(=O)N(C)C)cc4C)cc3)CC2)nc2cc(OC)c(OC)cc12`: the XC50 is 1020 nM.
The same measure for `COc1ccc(Br)cc1/C=C/C(=O)Nc1ccc(C2CCCN(C)C2)cc1` (stereo unspecified): 633 nM; for `O=C1c2ccccc2C(=O)N1CCOc1c(Br)cc(Br)cc1CNCCCNc1cc(=O)c2ccccc2[nH]1`: 837 nM; for `Cc1ccc2cc(NC(=O)CCCCCCCON3C(N)=NC(N)=NC34CCCCC4)ccc2n1`: 92.5 nM.
For `CN1CCN(c2cccc(-c3nnc(-c4ccc(OCC(=O)NCc5cccc(C(F)(F)F)c5)c([N+](=O)[O-])c4)o3)c2)CC1`, the XC50 was found to be 962 nM.
For the compound `COC(=O)c1cc(C(=O)CN(Cc2ccccc2)C(C)C)ccc1O`, the XC50 came to 183 nM.
The same measure for `O=C(CCCCCNC(=O)c1ccc(O)c(-c2ccc(Cl)c(Cl)c2)c1)NCCc1ccc(Cl)c(Cl)c1`: 756 nM; for `COC(=O)c1cccc(CNCc2ccc(-c3ccc(-c4nc5cc(C(F)(F)F)ccc5[nH]4)cc3)cc2)c1`: 298 nM; for `CCCc1ccc(C2CCN(CCCCNC(=O)c3ccc(NC(=O)c4ccc(Cl)cc4)cc3)CC2)cc1`: 628 nM.
`Nc1nccc2ccc(-c3cccnc3)cc12` had an XC50 of 419 nM.
The compound `CCc1c(CCNCCCCCCNCCc2ccc(Br)cc2)ccc(O)c1O` gave an XC50 of 903 nM.
Under `C[C@@H](CC1CCCCC1)NCc1ccccc1O` stands 932 nM; under `O=C(Cc1cccc(Cl)c1)Nc1cccc(-c2c[nH]c3nc(Nc4ccccc4)ncc23)c1`, 678 nM.
Under `COc1ccc(CN2CCN(Cc3cc(Cl)ccc3O)CC2CCO)c(C)c1C` (stereo unspecified) stands 1490 nM; under `COc1ccc(C2=[N+]([O-])c3ccccc3C2=O)cc1`, 783 nM; under `COc1ccc(-c2cccc(NC(=O)c3ccc(Cl)cc3)c2)cc1CN1CCCN(C)CC1`, 387 nM.
The same measure for `O=C(/C=C/c1ccc(Cl)c(Cl)c1)NCCCCCN1CCC(NC(=O)Nc2ccc([N+](=O)[O-])cc2)CC1`: 686 nM; for `CC(=O)Nc1ccc2[nH]cc(C3CCN(CC4CCC(NC(=O)/C=C/c5ccccc5Cl)CC4)CC3)c2n1` (stereo unspecified): 364 nM.
In the case of `CCN1CCC(N(Cc2ccc(-c3ccc(C(F)(F)F)cc3)cc2)C(=O)Cn2c(CCc3cccc(F)c3F)cc(=O)c3cn(C)nc32)CC1`, the XC50 was found to be 240 nM.
`CCCc1ccccc1OCC(O)CN(C1CCCC1)C1CCCC1` (stereo unspecified) yielded an XC50 of 470 nM.
The same measure for `CC(C)(C)NCCN(Cc1ccc(-c2ccc(C(F)(F)F)cc2)cc1)C(=O)Cn1c(CCc2cccc(F)c2F)nc(=O)c2c1CCC2`: 948 nM; for `CCN(CC)/C(=N/C(=N)NCc1cccc(Cl)c1)NCCCCCCN/C(=N\C(=N)NCc1cccc(Cl)c1)N(CC)CC`: 206 nM; for `CN1CCN(c2cccc(-c3nnc(-c4ccc(OCC(=O)NCc5ccc(C(F)(F)F)cc5)c([N+](=O)[O-])c4)o3)c2)CC1`: 661 nM.
The same measure for `CN1CCN(CCCN(Cc2ccc(-c3ccc(CNC4CCCC4)cc3)cc2)C(=O)CCC2CCCC2)CC1`: 886 nM.
`Cc1ccoc1C(=O)Nc1cccc(-c2cccc(-c3nc4cccc(C)c4[nH]3)c2)c1` registered an XC50 of 675 nM.
Under `CCCN(CCC)CCCCC(C)Nc1c2ccc(Cl)cc2nc2ccc(OC)cc12` (stereo unspecified) stands 137 nM; under `COc1ccc2ncc(F)c(CCN3CC(O)C(CNCc4ccccc4)C3)c2n1` (stereo unspecified), 910 nM; under `CCC1(c2ccccc2)N=C(N)N(CCCc2ccccc2)C1=O` (stereo unspecified), 891 nM.
The same measure for `COc1cc2nccc(Nc3ccc(Oc4ccccc4)cc3)c2cc1OC`: 684 nM; for `C=C[C@H]1CN2CC[C@@H]1C[C@H]2[C@H](O)c1cc(-c2ccc(F)cc2)nc2ccc(OC)cc12`: 169 nM.
Under `Cc1ccc(CN2CCCN(Cc3ccc(C(=O)Nc4ccc(Cl)cc4)cc3)CC2)s1` stands 1110 nM.
With `CN1CCN(CC(=O)Nc2cccc(-c3ccc(-c4nc5cc(C(F)(F)F)ccc5[nH]4)s3)c2)CC1`, the XC50 stood at 309 nM.
Under `COc1ccc(-c2ccc(NC(=O)c3ccc(Cl)cc3)cc2)cc1CN(C)CCO` stands 813 nM; under `Cc1cc(N[C@@H](CC(C)C)C(=O)NCCc2ccccc2)nc(NCc2ccccc2C)n1`, 906 nM.
Under `Cc1cc(CNC(c2ccccc2)C2CCC2)cc(C)c1O` (stereo unspecified) stands 890 nM; under `COc1ccc2nc3cc(Cl)ccc3c(NCCCCN3CCNCC3)c2c1`, 183 nM.
The compound `O=C(NC(=O)c1ccccc1O)c1ccccc1O` registered an XC50 of 704 nM.

Source of the values: ChEMBL document CHEMBL1157539, “Thousands of chemical starting points for antimalarial lead identification” (Nature, 2010).
